In patent US8802691B2 (priority 2009, dated 2014):
Read-outs that look alike come from different tables or passages of the source.

Columns and labels:
canine Leishmaniosis [1] = conditions: conventional treatments monitored by serology, bibliography, cited from earlier work
monocytes = assay: NBT reduction test in whole blood of healthy dogs: activated monocytes; type: in vivo, dog
Description: (§1) 20 dogs of different breed, sex and age, were randomly distributed into two groups of 10. […] During the study several visits were paid (days 0, 15, 30, 60 and 90) during which some clinical examinations were done and blood samples were collected for biochemical, haemathological and serological analyses (DAT). The percentages of activated monocytes and neutrophils were determined in whole blood samples through the nitroblue tetrazolium (NBT) reduction test.

prolactine hormone = conditions: for Tmax of prolactine (time to maximum prolactine concentration), mean: male dog, serum
Description: During each of the 7 phases blood samples were extracted at different times (t=0 h, 0.5 h, 1 h, 2 h, 4 h, 6 h, 8 h, 10 h, 12 h, 18 h, 36 y 48 h) for determining serum concentrations of prolactine using a commercial immuno enzymatic assay kit.

canine Leishmaniosis [2] = assay: Clinical study of Domperidone alone in dogs with initial stage Leishmaniosis (Example 6); type: in vivo, dog; conditions: for percentage of dogs with antibody titre lower than DAY 0: oral 1 mg/kg/12 h (<30 kg) or 0.7 mg/kg/12 h for 30 days, 70 dogs
Description: A clinical study was performed including a group of 70 dogs with an initial stage of Leishmaniosis (antibody titre against Leishmania between 1/800 and 1/1600-threshold of positively 1/800-and oligosymptomatics).
[…] During said controls different immunological (antibody titre against Leishmania-DAT, intradermoreaction test-Leishmanina), clinical (clinical symptoms, body weight) and analytical (biochemical profile, haematology, proteinogram and urine test for the determination of UPC ratio) parameters were assessed.

neutrophils = assay: NBT reduction test in whole blood of healthy dogs: activated neutrophils; type: in vivo, dog
Description: as §1

canine Leishmaniosis [3] = assay: Controlled study of a domperidone treatment plan in seronegative dogs in an endemic area (Example 5); type: in vivo, dog; conditions: treated group n = 120, two 30-day treatments at 0.5 mg/kg/day oral
Excerpt: The study lasted for 9 months, beginning at the onset of the activity period of the vector insect in the geographical area in which animals were found and closing three months after the end of this period. The presence of the vector was confirmed before starting the treatment.
The remaining 120 animals received a placebo under an equivalent dosage regime.

Leishmania infantum = assay: Circulating monocyte-derived macrophages from treated healthy dogs, in vitro infection with Leishmania infantum promastigotes; type: cell-based
Excerpt: It is designed as a prospective monocentric study. A total of 10 dogs have been included, each of them acting as its own control, for which reason it has not been considered necessary the use of a negative control. […] During the study several visits are paid the days 0 (basal), 15 and 30 of treatment, and days 60 and 90 (one and two months after finishing the treatment, respectively). During each visit blood is collected from animals and it is processed to isolate and culture monocytes-macrophages, which are then co-cultivated with Leishmania promastigotes. After 48 hours the nitroblue tetrazolium (NBT) reduction test is carried out on the cultures and the percentage of parasited macrophages and the number of amastigotes per macrophage were measured. Blood samples are also collected on days 0 and 90 to assess animal health by biochemical and haemathological analyses.

L. Infantum = conditions: 2 mg/kg/day, dogs infected with L. Infantum, ES 2246142; cited from earlier work
canine Leishmaniosis [4] = system: canine Leishmaniosis
[5] = Day 0 (before treatment), 0.5 mg/kg/day oral for 30 days, healthy dogs n = 10
[6] = Day 15, 0.5 mg/kg/day oral for 30 days, healthy dogs n = 10
[7] = Day 30, 0.5 mg/kg/day oral for 30 days, healthy dogs n = 10
[8] = Day 90 (60 days after end of treatment), 0.5 mg/kg/day oral for 30 days
[9] = sample of Day 0 (basal), dogs given 0.5 mg/kg/day oral for 30 days
[10] = sample of Day 15, dogs given 0.5 mg/kg/day oral for 30 days
[11] = sample of Day 30, dogs given 0.5 mg/kg/day oral for 30 days
[12] = sample of Day 60 (one month after end of treatment)
[13] = sample of Day 90 (two months after end of treatment)

SMILES: Oc1ncnc2[nH]ncc12 [Alopurinol]
- time after onset of treatment until decrease in the antibody titre against Leishmania is observed (canine Leishmaniosis [1]): ≥ 180 days
- time after onset of treatment until decrease in the antibody titre against Leishmania is observed (canine Leishmaniosis [1]; listed as alopurinol): 180 days

SMILES: O=c1[nH]c2ccccc2n1CCCN1CCC(n2c(=O)[nH]c3cc(Cl)ccc32)CC1 [Domperidone]
- percentage of activated monocytes, mean (monocytes; [5]): 3.200%
- percentage of activated monocytes, mean (monocytes; [6]): 26.10%
- percentage of activated monocytes, mean (monocytes; [7]): 26.40%
- percentage of activated monocytes, mean (monocytes; Day 60 (30 days after end of treatment), 0.5 mg/kg/day oral for 30 days): 8.600%
- percentage of activated monocytes, mean (monocytes; [8]): 3.100%
- average concentrations of prolactine in the first 36 hours after administration versus placebo (prolactine hormone; all six dosages 0.125-4 mg/kg, single oral dose): remained above the prolactine concentration in the group treated with the placebo
- Tmax of prolactine (time to maximum prolactine concentration), mean (prolactine hormone; single oral dose 0.125 mg/kg): 8.6 h
- Tmax of prolactine (time to maximum prolactine concentration), mean (prolactine hormone; single oral dose 0.250 mg/kg): 7.2 h
- Tmax of prolactine (time to maximum prolactine concentration), mean (prolactine hormone; single oral dose 0.5 mg/kg): 3.7 h
- Tmax of prolactine (time to maximum prolactine concentration), mean (prolactine hormone; single oral dose 1 mg/kg): 2.7 h
- Tmax of prolactine (time to maximum prolactine concentration), mean (prolactine hormone; single oral dose 2 mg/kg): 5.0 h
- Tmax of prolactine (time to maximum prolactine concentration), mean (prolactine hormone; single oral dose 4 mg/kg): 4.6 h
- percentage of dogs with antibody titre lower than DAY 0 (canine Leishmaniosis [2]; DAY 30): 10%
- percentage of dogs with antibody titre lower than DAY 0 (canine Leishmaniosis [2]; DAY 90): 47%
- percentage of dogs with antibody titre lower than DAY 0 (canine Leishmaniosis [2]; DAY 180): 57%
- animals with total disappearance of clinical symptoms (mainly lymphadenopathy) (canine Leishmaniosis [2]; in the course of the 12 months after the onset of the treatment): 100%
- percentage of activated neutrophils, mean (neutrophils; [5]): 5.700%
- percentage of activated neutrophils, mean (neutrophils; [6]): 38.50%
- percentage of activated neutrophils, mean (neutrophils; [7]): 40.00%
- percentage of activated neutrophils, mean (neutrophils; [8]): 5.900%
- animals with seropositivity against Leishmania (DAT≧1/400) at the end of the study (canine Leishmaniosis [3]): 0%
- animals showing clinical symptoms indicative of adverse reactions attributable to the medication (canine Leishmaniosis [3]; 9 months): None
- Animals WITH signs of canine Leishmaniosis, accumulated percentage (canine Leishmaniosis [3]; end of study (9th month)): 0%
- Animals WITHOUT signs of canine Leishmaniosis, accumulated percentage (canine Leishmaniosis [3]; end of study (9th month)): 100%
- number of amastigotes per macrophage after 48 hours of in vitro co-culture with Leishmania infantum promastigotes, mean (Leishmania infantum; [9]): 44.4
- percentage of positive NBT macrophages after 48 hours of co-culture with Leishmania infantum promastigotes, mean (Leishmania infantum; [9]): 2.00%
- number of amastigotes per macrophage after 48 hours of in vitro co-culture with Leishmania infantum promastigotes, mean (Leishmania infantum; [10]): 9.7
- percentage of positive NBT macrophages after 48 hours of co-culture with Leishmania infantum promastigotes, mean (Leishmania infantum; [10]): 61.10%
- number of amastigotes per macrophage after 48 hours of in vitro co-culture with Leishmania infantum promastigotes, mean (Leishmania infantum; [11]): 11.3
- percentage of positive NBT macrophages after 48 hours of co-culture with Leishmania infantum promastigotes, mean (Leishmania infantum; [11]): 62.20%
- number of amastigotes per macrophage after 48 hours of in vitro co-culture with Leishmania infantum promastigotes, mean (Leishmania infantum; [12]): 23.1
- percentage of macrophages infected after 48 hours of in vitro culture with Leishmania infantum promastigotes, mean (Leishmania infantum; [12]): 82.6%
- percentage of positive NBT macrophages after 48 hours of co-culture with Leishmania infantum promastigotes, mean (Leishmania infantum; [12]): 1.70%
- number of amastigotes per macrophage after 48 hours of in vitro co-culture with Leishmania infantum promastigotes, mean (Leishmania infantum; [13]): 42.6
- percentage of macrophages infected after 48 hours of in vitro culture with Leishmania infantum promastigotes, mean (Leishmania infantum; [13]): 89.5%
- percentage of positive NBT macrophages after 48 hours of co-culture with Leishmania infantum promastigotes, mean (Leishmania infantum; [13]): 1.80%
- effect on clinical signs of Leishmaniosis and level of antibodies (L. Infantum): able to reduce the clinical signs of Leishmaniosis and/or to reduce the level of antibodies in infected animals
- Animals WITH signs of canine Leishmaniosis, accumulated percentage (canine Leishmaniosis [4]; 0.5 mg/kg, 720 h): 11%
- Animals WITHOUT signs of canine Leishmaniosis, accumulated percentage (canine Leishmaniosis [4]; 0.5 mg/kg, 720 h): 85%
- Animals WITH signs of canine Leishmaniosis, accumulated percentage (canine Leishmaniosis [4]; treated group n = 45, 0.5 mg/kg/day for 30 days each four months, end of study (second year), highly endemic area): 11%
